Laboratory results taken from PMC12675387, “Receptor interaction profiles of 4-alkoxy-2,6-dimethoxyphenethylamines (Ψ derivatives) and related amphetamines” (Frontiers in Pharmacology, 2025).

Tests used:
rTAAR1 = rTAAR1 (Rattus norvegicus, UniProt Q923Y9); test: Radioligand binding, rat TAAR1 ([3H]RO5166017)
mTAAR1 = mTAAR1 (Mus musculus, UniProt Q923Y8); test: Radioligand binding, mouse TAAR1 ([3H]RO5166017)
human 5-HT2B receptor = target: T1, human 5-HT2B receptor (Homo sapiens, UniProt P41595); test: Activation potency and efficacy at the 5-HT2B receptor (Fluo-4 calcium, HEK 293 cells); type: cell-based
T1 construct: expressed in transfected cells; host or cells: HEK 293 cells
Method: The activation potency and efficacy at the 5-HT2B receptor were determined as previously described by [Luethi et al. (2018)]. In summary, HEK 293 cells stably transfected with the human 5-HT2B receptor were seeded in poly-D-lysine-coated 96 well plates at a density of 50,000 cells per well overnight at 37 °C in high glucose Dulbecco’s modified Eagle’s medium (DMEM; Invitrogen, Zug, Switzerland) supplemented with 10% fetal calf serum (non-dialyzed and heat-inactivated), 250 mg/L Geneticin, and 100 U/mL penicillin, and 100 μg/mL streptomycin (Gibco). The growth medium was removed by snap inversion and the cells were exposed to 100 μL calcium indication Fluo-4-solution (Molecular Probes, Eugene, OR, United States) for 45 min at 31 °C. Thereafter, the Fluo-4-solution was removed once again by snap inversion and was replaced with fresh 100 μL Fluo-4-solution. Next, the cells were washed with HBSS and 20 mM HEPES using the EMBLA cell washer and then exposed to the assay buffer (100 μL per well). Afterwards, 25 μL of test compounds diluted in assay buffer were added to the plate online. Dose–response curves were determined using nonlinear regression and EC50 values were calculated. The activation efficacy was calculated relative to the 5-HT activity (defined as 100%).

hSERT = hSERT (Homo sapiens, UniProt P31645); test: Radioligand binding, SERT ([3H]citalopram); conditions: hSERT Ki ± SD, [3H]citalopram
h5-HT1A receptor = target: T2, h5-HT1A receptor (Homo sapiens, UniProt P08908); test: Radioligand binding, 5-HT1A receptor ([3H]8-OH-DPAT)
T2 sequence (P08908 1-422): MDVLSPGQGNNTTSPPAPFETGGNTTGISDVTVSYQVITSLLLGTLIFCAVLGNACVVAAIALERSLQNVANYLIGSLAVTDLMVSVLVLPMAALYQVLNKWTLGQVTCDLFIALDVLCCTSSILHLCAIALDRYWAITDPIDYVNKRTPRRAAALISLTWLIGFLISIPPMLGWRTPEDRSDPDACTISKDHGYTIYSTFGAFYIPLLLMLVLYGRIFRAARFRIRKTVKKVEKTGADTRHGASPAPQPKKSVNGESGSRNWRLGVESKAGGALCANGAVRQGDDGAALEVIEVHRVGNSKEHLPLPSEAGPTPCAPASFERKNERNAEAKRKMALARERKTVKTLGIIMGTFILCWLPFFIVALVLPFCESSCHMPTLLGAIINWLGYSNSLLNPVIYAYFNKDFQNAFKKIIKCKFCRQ

hα1A adrenergic receptor = target: T3, hα1A adrenergic receptor (Homo sapiens, UniProt P35348); test: Radioligand binding, α1A adrenergic receptor ([3H]prazosin); conditions: hα1A Ki ± SD
T3 sequence (P35348 1-466): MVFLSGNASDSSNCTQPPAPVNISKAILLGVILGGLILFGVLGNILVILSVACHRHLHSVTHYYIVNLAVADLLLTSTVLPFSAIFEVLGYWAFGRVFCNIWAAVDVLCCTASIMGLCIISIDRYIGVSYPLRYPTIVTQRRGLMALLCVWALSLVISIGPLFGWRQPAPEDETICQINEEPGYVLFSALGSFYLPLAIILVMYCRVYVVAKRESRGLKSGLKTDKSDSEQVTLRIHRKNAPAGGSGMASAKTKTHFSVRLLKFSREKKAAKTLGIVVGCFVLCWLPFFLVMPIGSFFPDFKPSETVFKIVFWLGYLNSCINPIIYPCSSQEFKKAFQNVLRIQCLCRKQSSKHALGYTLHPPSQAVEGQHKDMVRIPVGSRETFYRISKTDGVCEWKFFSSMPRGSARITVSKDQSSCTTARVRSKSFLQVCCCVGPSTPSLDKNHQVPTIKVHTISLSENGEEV

human 5-HT2A receptor = target: T4, human 5-HT2A receptor (Homo sapiens, UniProt P28223); test: Activation potency and efficacy at the 5-HT2A receptor (FLIPR calcium, NIH-3T3 cells); type: cell-based; conditions: for Emax: NIH3T3, relative to 5-HT (100%), read-out: h5-HT2A activation efficacy Emax ± SD
T4 construct: expressed in transfected cells; host or cells: NIH-3T3 mouse embryonic fibroblasts
Method: The activation potency and efficacy at the 5-HT2A receptor were determined as previously described by [Luethi et al. (2018)]. In short, mouse embryonic fibroblasts (NIH-3T3 cells) stably transfected with the human 5-HT2A receptor were seeded in poly-D-lysine-coated 96 well plates at a density of 70,000 cells per 100 μL. Next, the cells were incubated in HEPES-Hank’s Balanced Salt Solution (HBSS) buffer (Gibco) for 1 h at 37 °C; the cells were then incubated with 100 μL of dye solution (fluorescence imaging plate reader [FLIPR] calcium 5 assay kit; Molecular Devices, Sunnyvale, CA, United States) per well for 1 h at 37 °C. The plate was then inserted into the FLIPR and 25 μL of the test compounds diluted in HEPES-HBSS buffer containing […] probenecid were added online. Increase of the fluorescence signal was measured and the activation potency (EC50) was calculated from the dose-response curves using nonlinear regression. The activation efficacy was calculated relative to 5-HT activity (defined as 100% activity).

hα2A adrenergic receptor = target: T5, hα2A adrenergic receptor (Homo sapiens, UniProt P08913); test: Radioligand binding, α2A adrenergic receptor ([3H]rauwolscine)
T5 sequence (P08913 1-465): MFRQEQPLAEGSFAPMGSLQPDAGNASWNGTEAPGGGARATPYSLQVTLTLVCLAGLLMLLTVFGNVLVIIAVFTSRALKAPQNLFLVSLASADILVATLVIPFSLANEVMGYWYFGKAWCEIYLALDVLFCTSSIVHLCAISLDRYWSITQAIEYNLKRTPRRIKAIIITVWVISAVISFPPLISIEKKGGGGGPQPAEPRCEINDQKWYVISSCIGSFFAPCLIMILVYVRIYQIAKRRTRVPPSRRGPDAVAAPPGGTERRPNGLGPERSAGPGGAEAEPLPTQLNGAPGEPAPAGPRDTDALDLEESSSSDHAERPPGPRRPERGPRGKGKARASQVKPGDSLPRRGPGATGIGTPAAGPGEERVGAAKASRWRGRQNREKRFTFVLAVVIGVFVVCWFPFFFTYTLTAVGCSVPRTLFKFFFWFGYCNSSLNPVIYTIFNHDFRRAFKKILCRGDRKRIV

Chain of mTAAR1 (Q923Y8 whole entry): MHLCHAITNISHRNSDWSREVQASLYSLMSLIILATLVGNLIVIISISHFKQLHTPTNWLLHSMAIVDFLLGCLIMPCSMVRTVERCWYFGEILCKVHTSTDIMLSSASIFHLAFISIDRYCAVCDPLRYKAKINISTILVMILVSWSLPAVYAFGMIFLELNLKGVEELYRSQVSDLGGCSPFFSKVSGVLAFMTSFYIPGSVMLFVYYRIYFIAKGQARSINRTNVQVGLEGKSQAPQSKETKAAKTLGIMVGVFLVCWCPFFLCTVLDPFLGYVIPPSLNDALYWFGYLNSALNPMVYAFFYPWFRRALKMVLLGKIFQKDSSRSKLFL
T1 sequence (P41595 whole entry): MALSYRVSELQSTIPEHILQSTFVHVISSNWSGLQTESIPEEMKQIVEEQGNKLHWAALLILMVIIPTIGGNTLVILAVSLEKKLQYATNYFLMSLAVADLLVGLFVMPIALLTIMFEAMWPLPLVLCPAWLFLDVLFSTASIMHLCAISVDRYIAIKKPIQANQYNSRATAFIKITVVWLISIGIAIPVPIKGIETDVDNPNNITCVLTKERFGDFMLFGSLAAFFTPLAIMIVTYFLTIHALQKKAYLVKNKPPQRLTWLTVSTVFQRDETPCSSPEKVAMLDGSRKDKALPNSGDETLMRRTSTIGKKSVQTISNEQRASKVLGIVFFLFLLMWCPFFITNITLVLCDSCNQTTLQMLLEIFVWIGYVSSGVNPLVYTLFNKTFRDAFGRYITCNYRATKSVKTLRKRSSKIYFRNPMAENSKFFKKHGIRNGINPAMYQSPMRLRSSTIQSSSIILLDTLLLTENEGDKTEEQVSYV
T4 sequence (P28223 whole entry): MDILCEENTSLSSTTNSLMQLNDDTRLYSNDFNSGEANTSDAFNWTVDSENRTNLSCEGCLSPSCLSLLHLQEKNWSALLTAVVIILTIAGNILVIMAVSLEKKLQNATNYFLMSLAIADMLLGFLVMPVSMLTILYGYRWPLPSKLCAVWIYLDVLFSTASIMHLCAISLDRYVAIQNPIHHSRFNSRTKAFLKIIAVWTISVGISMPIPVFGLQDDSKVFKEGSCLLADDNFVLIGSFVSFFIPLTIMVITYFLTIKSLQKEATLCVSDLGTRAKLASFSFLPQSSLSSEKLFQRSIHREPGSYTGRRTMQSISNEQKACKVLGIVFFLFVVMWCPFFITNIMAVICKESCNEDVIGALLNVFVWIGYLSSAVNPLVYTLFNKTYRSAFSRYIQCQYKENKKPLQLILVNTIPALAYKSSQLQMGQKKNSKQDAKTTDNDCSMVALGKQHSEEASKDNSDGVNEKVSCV
Chain of rTAAR1 (Q923Y9 whole entry): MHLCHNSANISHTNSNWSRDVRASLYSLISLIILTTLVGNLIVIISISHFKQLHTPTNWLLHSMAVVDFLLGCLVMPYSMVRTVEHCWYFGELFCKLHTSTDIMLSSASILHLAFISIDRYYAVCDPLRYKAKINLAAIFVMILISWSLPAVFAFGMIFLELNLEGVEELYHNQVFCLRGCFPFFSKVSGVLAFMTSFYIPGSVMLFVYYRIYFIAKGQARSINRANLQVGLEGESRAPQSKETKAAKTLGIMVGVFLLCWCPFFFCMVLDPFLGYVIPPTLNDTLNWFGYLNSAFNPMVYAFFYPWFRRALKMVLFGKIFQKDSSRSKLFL
Chain of hSERT (P31645 whole entry): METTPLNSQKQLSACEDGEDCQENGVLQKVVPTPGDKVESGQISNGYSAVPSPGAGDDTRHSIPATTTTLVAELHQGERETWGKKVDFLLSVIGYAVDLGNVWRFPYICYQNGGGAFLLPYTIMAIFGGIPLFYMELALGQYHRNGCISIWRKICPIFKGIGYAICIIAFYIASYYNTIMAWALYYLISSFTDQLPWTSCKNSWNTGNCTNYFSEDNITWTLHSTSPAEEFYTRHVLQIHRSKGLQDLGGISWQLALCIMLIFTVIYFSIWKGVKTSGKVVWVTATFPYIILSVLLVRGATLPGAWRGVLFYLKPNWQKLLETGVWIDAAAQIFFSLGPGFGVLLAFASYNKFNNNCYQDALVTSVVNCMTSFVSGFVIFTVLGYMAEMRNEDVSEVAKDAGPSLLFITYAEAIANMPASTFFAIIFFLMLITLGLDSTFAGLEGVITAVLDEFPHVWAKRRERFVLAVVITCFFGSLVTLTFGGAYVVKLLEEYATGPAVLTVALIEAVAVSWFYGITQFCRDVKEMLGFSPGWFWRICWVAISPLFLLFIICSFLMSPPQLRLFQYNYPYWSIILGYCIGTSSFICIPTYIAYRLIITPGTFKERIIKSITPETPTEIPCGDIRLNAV

Compound	Ki (rTAAR1) [nM]	Ki (mTAAR1) [nM]	EC50 (human 5-HT2B receptor) [nM]	Ki (hSERT) [nM]	Ki (h5-HT1A receptor) [nM]	Ki (hα1A adrenergic receptor) [nM]	EC50 (human 5-HT2A receptor) [nM]	Emax (human 5-HT2A receptor) [%]	Ki (hα2A adrenergic receptor) [nM]	Emax (human 5-HT2B receptor; HEK293, relative to 5-HT (100%), read-out: h5-HT2B activation efficacy Emax ± SD) [%]	type of agonism at the 5-HT2A receptor (human 5-HT2A receptor)
COc1cc(OCCF)cc(OC)c1CC(C)N (centres unmarked) [Ψ-MFEM, 2,6-dimethoxy-4-(2-fluoroethoxy)amphetamine]	52 ± 18	560 ± 10	> 10000	> 7500	> 5600	6700	1300	37 ± 2	4100	–	–
C=C(C)COc1cc(OC)c(CC(C)N)c(OC)c1 (centres unmarked) [Ψ-MMALM, 2,6-dimethoxy-4-methallyloxyamphetamine]	32 ± 5	250 ± 50	93 ± 26	> 7500	> 5600	2200	58 ± 28	68 ± 9	1400	33 ± 11	partial agonists
COc1cc(OCC(F)(F)F)cc(OC)c1CC(C)N (centres unmarked) [Ψ-MTFEM, 2,6-dimethoxy-4-(2,2,2-trifluoroethoxy)amphetamine]	110 ± 40	410 ± 80	> 10000	> 7500	> 5600	6100	1100	33 ± 6	3800	–	–
